Experimental data: ChEMBL document CHEMBL1155711, “Bidentatoside I, a new triterpene saponin from Achyranthes bidentata” (J Nat Prod, 2001)
Calls of active or inactive are those of the source. No cut-off for these calls is given here.

System: HT-29
Assay: Potentiation of cisplatin-induced cytotoxicity in human HT-29 cells
Format: functional, cell-based

SMILES: CC1(C)CC[C@]2(C(=O)O[C@@H]3O[C@H](CO)[C@@H](O)[C@H](O)[C@H]3O)CC[C@]3(C)C(=CC[C@@H]4[C@@]5(C)CC[C@H](O[C@@H]6O[C@H](C(=O)O)[C@@H](O)[C@@H]7OC(O)(C(=O)O)C(OCC(=O)O)O[C@@H]67)C(C)(C)[C@@H]5CC[C@]43C)[C@@H]2C1 (stereo partly specified)
- Activity: inactive
